Experimental data taken from patent US5162326A, “Pyrimidinedione derivatives, their production and use” (Takeda Chemical Industries, Ltd., priority 1990, dated 1992).

How the values were obtained:
A-II-receptor = biological target: T1, A-II-receptor (Bos taurus, UniProt P25104); experiment: Inhibition of Binding of Angiotensin-II to Angiotensin Receptor (125I-A-II, membrane fraction of bovine adrenal cortex); conditions: room temperature, one hour
T1 construct: An A-II-receptor was prepared from the membrane fraction of bovine adrenal cortex; from tissue; host or cells: bovine adrenal cortex, membrane fraction
T1 sequence (P25104 1-359): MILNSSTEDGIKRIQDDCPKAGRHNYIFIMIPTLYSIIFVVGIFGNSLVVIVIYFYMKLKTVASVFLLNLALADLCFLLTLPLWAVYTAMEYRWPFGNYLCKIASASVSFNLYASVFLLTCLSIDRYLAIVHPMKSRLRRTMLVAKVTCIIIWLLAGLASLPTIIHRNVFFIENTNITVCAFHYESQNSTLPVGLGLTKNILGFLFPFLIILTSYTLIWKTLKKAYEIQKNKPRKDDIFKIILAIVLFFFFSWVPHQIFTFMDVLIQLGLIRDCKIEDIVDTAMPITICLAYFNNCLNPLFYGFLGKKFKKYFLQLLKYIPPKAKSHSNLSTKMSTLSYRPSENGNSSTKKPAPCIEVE
Experimental: Inhibition of Binding of Angiotensin-II to Angiotensin Receptor
An experiment of inhibition on the binding of angiotensin-II (A-II) to A-II-receptor was conducted by modifying the method of Douglas et al. [Endocrinology, 102, 685-696 (1978)]. An A-II-receptor was prepared from the membrane fraction of bovine adrenal cortex.
The compound of the present invention (10^-6 M to 10^-8 M) and ^125 I-A-II (1.85 kBq/50 μl) were added to the receptor membrane fraction, and the mixture was incubated at room temperature for one hour. The receptor-bound and free ^125 I-A-II were separated through a filter (Whatman GF/B filter), and the radioactivity of ^125 I-A-II bound to the receptor was measured.

Pressor Response to A II = experiment: Inhibitory Effect of the Compound on Pressor Action of A-II in rats; format: in vivo, Jcl: SD rats; conditions: Rattus norvegicus, po
Description: Inhibitory Effect of the Compound of the Present Invention on Pressor Action of A-II
Jcl: SD rats (9 week old, male) were used. On the day previous to the experiment, these animals were applied with cannulation into the femoral artery and vein under anesthesia with pentobarbital Na. The animals were fasted but allowed to access freely to drinking water until the experiment was started. Just on the day of conducting the experiment, the artery cannula was connected with a blood-pressure transducer, and the average blood pressure was recorded by means of polygraph. Before administration of the drug, the pressor action due to intravenous administration of A-II (100 ng/kg) as the control was measured. The drugs were orally administered, and then, at each point of the measurement, A-II was administered intravenously, and the pressor action was similarly measured. By comparing the pressor action before and after administration of the drug, the percent inhibition by the drug on A-II-induced pressor action was evaluated.

angiotensin II = conditions: reported in the literature; cited from earlier work

SMILES	IC50 (A-II-receptor)	inhibition in vivo at 30 mg/kg (Pressor Response to A II)	angiotensin II antagonistic activity (angiotensin II)
CCCn1c(=O)cc(SC2CCCCC2)n(Cc2ccc(-c3ccccc3-c3nn[nH]n3)cc2)c1=O [compound 5]	320 nM	30 to 50%	–
CCCn1c(=O)cc(SC)n(Cc2ccc(-c3ccccc3-c3nn[nH]n3)cc2)c1=O [compound 1]	860 nM	–	–
CCCCSc1cc(=O)n(CCC)c(=O)n1Cc1ccc(-c2ccccc2-c2nn[nH]n2)cc1 [compound 4]	40 nM	≥ 70%	–
CCCSc1cc(=O)n(CCC)c(=O)n1Cc1ccc(-c2ccccc2-c2nnn[nH]2)cc1 [compound 3]	20 nM	–	–
CCCCCSc1cc(=O)n(CCC)c(=O)n1Cc1ccc(-c2ccccc2-c2nn[nH]n2)cc1 [compound 6]	20 nM	30 to 50%	–
CNCC(=O)N[C@@H](CCCN=C(N)N)C(=O)N[C@H](C(=O)N[C@@H](Cc1ccc(O)cc1)C(=O)N[C@H](C(=O)N[C@@H](Cc1cnc[nH]1)C(=O)N1CCC[C@H]1C(=O)N[C@@H](C)C(=O)O)C(C)C)C(C)C [saralasin]	–	–	potent angiotensin II antagonistic activity
CCCn1c(=O)cc(SCC)n(Cc2ccc(-c3ccccc3-c3nn[nH]n3)cc2)c1=O [compound 2]	20 nM	≥ 70%	–
CCCn1c(=O)cc(SCc2ccccc2)n(Cc2ccc(-c3ccccc3-c3nn[nH]n3)cc2)c1=O [compound 7]	330 nM	< 30%	–

The next lines start with results.

IC50 (A-II-receptor)	SMILES	inhibition in vivo at 30 mg/kg (Pressor Response to A II)	angiotensin II antagonistic activity (angiotensin II)
20 nM	CCCc1cc(=O)n(CC(=O)OCC)c(=O)n1Cc1ccc(-c2ccccc2-c2nn[nH]n2)cc1 [compound 28]	≥ 70%	–
40 nM	CCCCn1c(=O)cc(SCCC)n(Cc2ccc(-c3ccccc3-c3nn[nH]n3)cc2)c1=O [compound 9]	≥ 70%	–
20 nM	CCCc1cc(=O)n(CC)c(=O)n1Cc1ccc(-c2ccccc2-c2nn[nH]n2)cc1 [compound 23]	≥ 70%	–
140 nM	CCCOc1cc(=O)n(CCC)c(=O)n1Cc1ccc(-c2ccccc2-c2nnn[nH]2)cc1 [compound 18]	≥ 70%	–
20 nM	CCCc1cc(=O)n(CCC)c(=O)n1Cc1ccc(-c2ccccc2-c2nn[nH]n2)cc1 [compound 25]	≥ 70%	–
320 nM	CCCCn1c(=O)cc(Sc2ccccc2)n(Cc2ccc(-c3ccccc3-c3nn[nH]n3)cc2)c1=O [compound 10]	< 30%	–
10 nM	CCCc1cc(=O)n(CC(=O)OC)c(=O)n1Cc1ccc(-c2ccccc2-c2nn[nH]n2)cc1 [compound 27]	≥ 70%	–
20 nM	CCCCn1c(=O)cc(CCC)n(Cc2ccc(-c3ccccc3-c3nn[nH]n3)cc2)c1=O [compound 26]	≥ 70%	–
340 nM	CCCNc1cc(=O)n(CCC)c(=O)n1Cc1ccc(-c2ccccc2-c2nn[nH]n2)cc1 [compound 14]	< 30%	–
60 nM	CCCn1c(=O)cc(OCC)n(Cc2ccc(-c3ccccc3-c3nn[nH]n3)cc2)c1=O [compound 8]	≥ 70%	–
